Among the data in PubChem BioAssay (NCI) are TGI and GI50 values, retold here.

Where “and” joins values, the source holds several entries; their conditions need not be identical. Identical values can stand only once.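 In this assay, cells in 96-well plates receive the compound at five concentrations for 48 hours. Endpoints are linearly interpolated between the surrounding concentrations. Here, GI50 denotes the concentration required for 50% inhibition of growth. TGI: total growth inhibition.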

Some test systems named below: MOLT-4 leukemia; SNB-19 CNS; DU-145 prostate; EKVX NSCLC; OVCAR-4 ovarian; MCF7 breast; NCI-H522 lung; RPMI-8226 leukemia; A498 renal; SK-MEL-28 melanoma.
Holding throughout (assay): inhibition of tumour cell growth, NCI panel, 48 h

Turning to `CC(C)c1ccc(C(O)(C(=O)O)c2ccc(C(C)C)cc2)cc1`, the TGI with MOLT-4 leukemia, in the assay on SNB-19 CNS, in the assay on DU-145 prostate, with EKVX NSCLC, in the assay on OVCAR-4 ovarian and in the assay on MCF7 breast was above 100 µM each time. Moreover, the TGI in the assay with NCI-H522 lung is above 100 µM; in the assay with RPMI-8226 leukemia it was 72 µM; in the assay on A498 renal, above 100 µM; in the assay with SK-MEL-28 melanoma, above 100 µM.
For the compound `C=C1C(=O)O[C@H]2[C@H]1CC/C(CNC(=O)C(C)c1ccc(CC(C)C)cc1)=C\CC[C@@]1(C)O[C@@H]21` (some centres not stated), the GI50 was 2.39 µM in the assay on MOLT-4 leukemia; 2.15 µM in the assay on SNB-19 CNS; 1.49 µM in the assay with DU-145 prostate; 1.67 µM in the assay on EKVX NSCLC; 1.66 µM in the assay on OVCAR-4 ovarian; 1.62 µM in the assay on MCF7 breast. Besides, the GI50 was 1.63 µM in the assay on NCI-H522 lung, 2.29 µM with RPMI-8226 leukemia, 2.22 µM with A498 renal and 1.67 µM in the assay on SK-MEL-28 melanoma. The TGI in the assay with MOLT-4 leukemia came out at 9.66 µM; in the assay with SNB-19 CNS, 5.67 µM; in the assay on DU-145 prostate it was 2.85 µM; in the assay with EKVX NSCLC, 3.22 µM; with OVCAR-4 ovarian, 3.13 µM; with MCF7 breast, 3.68 µM. For the same compound, the TGI amounted to 3.5 µM with NCI-H522 lung, 6.92 µM in the assay on RPMI-8226 leukemia, 8.38 µM in the assay on A498 renal and 3.32 µM with SK-MEL-28 melanoma.
Turning to `COc1ccc2[nH]cc(Cc3c[nH]c4ccc(OC)cc34)c2c1`, the GI50 is 37.4 µM in the assay on MOLT-4 leukemia; 29.3 µM in the assay with SNB-19 CNS; 15.2 µM in the assay with DU-145 prostate; 17.9 µM with EKVX NSCLC; 17.6 µM in the assay on OVCAR-4 ovarian; 28.7 µM with MCF7 breast. Also, the GI50 was 25.5 µM in the assay on NCI-H522 lung, 20.8 µM in the assay with RPMI-8226 leukemia, 3.32 µM with A498 renal and 21.8 µM with SK-MEL-28 melanoma. The TGI was above 100 µM with MOLT-4 leukemia; 79.8 µM with SNB-19 CNS; 34 µM with DU-145 prostate; 45.9 µM in the assay with EKVX NSCLC; 40.3 µM in the assay with OVCAR-4 ovarian; above 100 µM with MCF7 breast. Further, the TGI came to 77.3 µM with NCI-H522 lung, 40.3 µM in the assay with RPMI-8226 leukemia, 14.5 µM with A498 renal and 53 µM with SK-MEL-28 melanoma.
For the compound `N#Cc1ccc(C(=O)c2cnn(-c3ccc(F)cc3)c2N)cc1`, the GI50 in the assay on MOLT-4 leukemia, in the assay with SNB-19 CNS, in the assay on DU-145 prostate, in the assay with OVCAR-4 ovarian, with MCF7 breast and in the assay on NCI-H522 lung was above 25 µM each time. Besides, the GI50 in the assay with RPMI-8226 leukemia, with A498 renal and in the assay on SK-MEL-28 melanoma was above 25 µM in each case. The TGI in the assay on MOLT-4 leukemia, with SNB-19 CNS, with DU-145 prostate, in the assay on OVCAR-4 ovarian, in the assay with MCF7 breast and in the assay with NCI-H522 lung was above 25 µM each time. In addition, the TGI with RPMI-8226 leukemia, with A498 renal and in the assay with SK-MEL-28 melanoma was above 25 µM each time.
For `CC[C@H](C)[C@H](NC(=O)[C@H]1CCCCN1C)C(=O)N(C)[C@H](C[C@@H](OC(C)=O)c1nc(C(=O)NC23C4C5C2C2C3C4C52C(=O)OC)cs1)C(C)C` (some centres not stated), the GI50 in the assay on MOLT-4 leukemia was 0.00485 µM and 0.0025 µM; with SNB-19 CNS, 0.00396 µM and 0.0025 µM; in the assay on DU-145 prostate it was 0.00113 µM and 0.0025 µM; with EKVX NSCLC, 0.027 µM and 0.011 µM; in the assay with OVCAR-4 ovarian it was 0.0506 µM; in the assay with MCF7 breast, 0.000557 µM and 0.0025 µM. Further, the GI50 in the assay with NCI-H522 lung was 0.000331 µM and < 0.0025 µM; with RPMI-8226 leukemia, 0.00197 µM and 0.0025 µM; in the assay with A498 renal it was 0.0139 µM and 0.00317 µM; with SK-MEL-28 melanoma, 3.12 µM. Besides, the TGI is above 25 µM in the assay on MOLT-4 leukemia; above 25 µM with SNB-19 CNS; 0.031 µM with DU-145 prostate; above 25 µM in the assay on EKVX NSCLC; above 25 µM in the assay on OVCAR-4 ovarian; above 25 µM in the assay on MCF7 breast. Further, the TGI in the assay with RPMI-8226 leukemia was 7 µM; in the assay with A498 renal it was 0.133 µM; in the assay on SK-MEL-28 melanoma, above 25 µM.
In the case of `O=[N+]([O-])c1cc(C(F)(F)F)cc2n[se]nc12`, the TGI was above 45.2 µM in the assay on MOLT-4 leukemia; 29.5 µM in the assay with SNB-19 CNS; 6.66 µM in the assay with DU-145 prostate; 14.1 µM in the assay on EKVX NSCLC; 3.84 µM with OVCAR-4 ovarian; 4.07 µM with MCF7 breast. Besides, the TGI was 6.54 µM in the assay with NCI-H522 lung, 2.89 µM in the assay with RPMI-8226 leukemia, 31.5 µM in the assay on A498 renal and 4.39 µM with SK-MEL-28 melanoma.
Take `CCOP(=O)(OCC)C(NC(c1ccccc1)c1ccccc1)c1ccsc1` (configuration not stated): the GI50 in the assay on MOLT-4 leukemia is 25.4 µM; with DU-145 prostate it was 19.1 µM; in the assay with EKVX NSCLC it was 21.7 µM; with MCF7 breast, 24.2 µM; with NCI-H522 lung it was 25.2 µM; with RPMI-8226 leukemia it was 7.76 µM. In addition, the GI50 in the assay with A498 renal was 30.8 µM. Besides, the TGI with MOLT-4 leukemia is above 100 µM; in the assay on DU-145 prostate it was 35.5 µM; in the assay on EKVX NSCLC, 41.6 µM; in the assay with MCF7 breast, above 100 µM; in the assay with NCI-H522 lung it was 74.5 µM; with RPMI-8226 leukemia, 22 µM. In addition, the TGI with A498 renal turned out to be 49.6 µM.
On to `COc1ccccc1-c1ccc2c(N)c(C(=O)c3ccc4c(c3)OCO4)sc2n1`, for which the GI50 was 4.98 µM in the assay on MOLT-4 leukemia; 7.97 µM in the assay on SNB-19 CNS; 15 µM in the assay with DU-145 prostate; 4.82 µM in the assay with MCF7 breast; 4.32 µM in the assay with NCI-H522 lung; 6.05 µM in the assay with RPMI-8226 leukemia. Also, the GI50 was 2.39 µM with A498 renal and 5.03 µM in the assay on SK-MEL-28 melanoma. The TGI is above 100 µM in the assay on MOLT-4 leukemia; 30.2 µM in the assay with SNB-19 CNS; 42.6 µM in the assay with DU-145 prostate; 98.6 µM in the assay on MCF7 breast; 19.7 µM with NCI-H522 lung; 59.4 µM in the assay on RPMI-8226 leukemia. The values for the TGI with A498 renal and in the assay on SK-MEL-28 melanoma were 13.8 µM and 19.9 µM, respectively.
